The text below walks through data of patent US20250177378A1, “TREATMENT OF DEPRESSION” (priority 2022, published 2025).

Where “and” joins values, the source holds several entries; their conditions need not be identical. Identical values can stand only once.

For one series, the system named is individuals with MDD. To be noted: switch strategy; cited from earlier work.
For series [1], the system named is patients with major depressive disorder. The series is described as follows: Phase 2 randomized double-blind trial, dextromethorphan-bupropion (45 mg/105 mg tablet) vs bupropion (105 mg tablet), twice daily, 6 weeks (NCT03595579). As to the method: This randomized, double-blind, multicenter, parallel-group trial evaluated dextromethorphan-bupropion versus the active comparator sustained-release bupropion in patients 18-65 years old with a diagnosis of major depressive disorder of moderate or greater severity. Patients were randomly assigned to receive either dextromethorphan-bupropion (45 mg/105 mg tablet) or bupropion (105 mg tablet), once daily for the first 3 days and twice daily thereafter, for a total of 6 weeks.
This was a 6-week randomized, double-blind, active-controlled phase 2 trial conducted at four sites in the United States from May 2018 to December 2018. The trial used bupropion, an approved antidepressant, as the control because it is a component of dextromethorphan-bupropion.
The clinical review utilized only documentation collected by the sites at screening and baseline, including a complete medical history and clinician- and patient-reported outcome measures (described below, under Efficacy Assessments). […] In order to reduce investigator expectation bias and therefore placebo response, sites were blinded to the primary efficacy variable and the presence of an independent assessor. Sites were provided a blinded protocol that presented the trial as a safety study with exploratory efficacy assessments. Detailed discussion of the efficacy analysis was limited to the statistical analysis plan, which was not provided to the sites.
The study evaluated patients 18-65 years of age with a confirmed diagnosis of major depressive disorder and a current major depressive episode of moderate or greater severity. The diagnosis was established using the DSM-5 criteria for major depressive disorder without psychotic features, based on the Structured Clinical Interview for DSM-5, Clinical Trials Version, and the site investigator's rating of a score ≥25 on the Montgomery-Åsberg Depression Rating Scale (MADRS) and a score ≥4 on the Clinical Global Impressions severity scale (CGI-S). Confirmation of the diagnosis of major depressive disorder and a current major depressive episode of moderate or greater severity was performed by a blinded independent assessor based on a clinical review prior to database lock and study unblinding.
The screening period was up to 4 weeks to allow for any needed taper and washout of prior medications.
Participants were randomized in a 1:1 ratio to receive oral treatment with either dextromethorphan-bupropion or sustained-release bupropion. In order to blind site investigators to the independent confirmation of diagnosis, all patients deemed eligible by the site investigators were randomized to receive study medication and were included in the safety population. As prespecified, patients whose diagnosis or severity was not confirmed by the independent assessor were excluded from the efficacy population.
Dextromethorphan-bupropion tablets and bupropion tablets were identical in appearance. The randomization schedule was computer generated using a permuted block algorithm that randomly allocated study drug to randomization numbers.
The double-blind treatment period was 6 weeks. Patients received their assigned study medication, dextromethorphan-bupropion (45 mg/105 mg tablet) or bupropion (105 mg tablet), once daily for the first 3 days and twice daily thereafter. The bupropion dosage in the control arm (210 mg daily) was selected to match the dosage incorporated in dextromethorphan-bupropion, enabling an appropriate comparison. During the treatment period, patients tracked their mood daily by completing a daily visual analogue mood scale. Study visits occurred 1, 2, 3, 4, and 6 weeks after the baseline visit. A safety follow-up visit occurred at week 7, 1 week after the last dose of study medication. There were no formal discontinuation criteria; patients were free to withdraw consent for any reason, and investigators were free to remove a patient from the study for any safety-related reason.

Another series deals with patients with depression. To be noted: 150 mg/day or 300 mg/day, week 8; cited from earlier work.
The nature of series [2]: Pharmacokinetics of dextromethorphan, bupropion and metabolites after administration of the subject combination.

Turning to `COc1ccc(C(CN(C)C)C2(O)CCCCC2)cc1` (stereo not drawn) [venlafaxine], the “Remission rate, second line treatment following non-remission with an SSRI” value in the series with individuals with MDD is on record as “about 25%”.
On to `CN[C@H]1CC[C@@H](c2ccc(Cl)c(Cl)c2)c2ccccc21` [sertraline], for which the “Remission rate, second line treatment following non-remission with an SSRI” value in the series on individuals with MDD was “about 25%”.
Turning to `CC(NC(C)(C)C)C(=O)c1cccc(Cl)c1` (racemic) [bupropion], in series [1] (human, in vivo, 6 weeks), the “Adverse event leading to discontinuation of study drug, patients” value stood at 12.5%; the “Anxiety, patients” value worked out at 2.1%; the “Any adverse event, patients” value is 64.6%; the “Decreased appetite, patients” value was found to be 8.3%. In series [1] (human, in vivo, 6 weeks), the “Dizziness, patients” value is reported as 4.2%; the “Dry mouth, patients” value amounted to 8.3%; the “Nausea, patients” value stood at 12.5%; the “Serious adverse event, patients” value was determined as 0.0%. Also, in series [1] (human, in vivo, 6 weeks), the “Severe adverse event, patients” value is given as 2.1%. In series [1] (overall, weeks 1-6), the “CGI-S score, change from baseline, LS mean” value (shortened to “CGI-S score, change”) was −1.0; the “MADRS-6 score, change from baseline, LS mean” value (shortened to “MADRS-6 score, change”) is recorded as −6.6 points; the “QIDS-SR, LS mean change from baseline” value is −4.8. For the same compound, the “Patients with positive response on item 1 of the C-SSRS (wish to be dead)” value in series [1] (week 1) is on record as “five”. In series [1] (week 2), the “CGI-S score, change” value is −0.9; the “Clinical response (≥50% decrease in MADRS score from baseline), patients” value was found to be 27.0%; the “MADRS total score, change from baseline, LS mean” value was −7.8 points; the “MADRS-6 score, change” value is on record as −6.0. In addition, in series [1] (week 2), the “Remission (MADRS score ≤10), patients” value was 2.7% and 3%. In addition, in series [1] (week 6), the “CGI-S score, change” value was −1.5; the “Clinical response (≥50% decrease in MADRS score from baseline), patients” value is listed as 40.5%; the “MADRS total score, change from baseline, LS mean” value is reported as −12.1 points; the “MADRS-6 score, change” value was −8.7. Further, in series [1] (week 6), the “Patients with positive response on item 1 of the C-SSRS (wish to be dead)” value was “one”; the “Remission (MADRS score ≤10), patients” value stood at 16.2%; the “Remission on the QIDS-SR (score ≤5), patients” value came out at 21.6%. Also, the “Reduction from baseline in MADRS total score” value in series [1] (week 6, bupropion arm 210 mg/day) is 12 points. Further, the “Reduction from baseline in Hamilton Depression Rating Scale (HAM-D) score” value with patients with depression is reported as “approximately 10 points”. Further, the “Remission rate, second line treatment following non-remission with an SSRI” value with individuals with MDD is recorded as “about 25%”.
Consider `COc1ccc2c(c1)[C@]13CCCC[C@@H]1[C@H](C2)N(C)CC3` [dextromethorphan], for which, in series [2] (8 consecutive days of the subject combination, extensive metabolizers), the “Increase of mean elimination half-life vs dextromethorphan given without bupropion” value is given as “approximately 3 fold”. In addition, in series [2] (subject combination with food), the “AUC0-12 decrease when administered with food” value is recorded as 14% and the “Cmax change when administered with food” value is listed as “unchanged”.
